Data as given in ChEMBL document CHEMBL3885881, “DrugMatrix”.

Organism: Rattus norvegicus
Assay: DrugMatrix - Regimen: Daily Repeat
Type: toxicity, organism-based, Sprague-Dawley
Parameters: regimen Daily Repeat, gender Male, age 6-8 weeks
Conditions: in vivo, po, route oral GAVAGE; for BASOPHIL / EOSINOPHIL / ERYTHROCYTE COUNT / HEMATOCRIT / HEMOGLOBIN / LEUKOCYTE COUNT / LYMPHOCYTE / MEAN CORPUSCULAR HEMOGLOBIN / MEAN CORPUSCULAR HEMOGLOBIN CONCENTRATION / MEAN CORPUSCULAR VOLUME / MONOCYTE / NEUTROPHIL / NUCLEATED RED BLOOD CELLS / PLATELET COUNT / ABSOLUTE BASOPHIL / ABSOLUTE EOSINOPHIL / ABSOLUTE LYMPHOCYTE / ABSOLUTE MONOCYTE / ABSOLUTE SEGMENTED NEUTROPHIL: tissue Blood; for ALANINE AMINOTRANSFERASE / ALBUMIN / ALKALINE PHOSPHATASE / ASPARTATE AMINOTRANSFERASE / BLOOD UREA NITROGEN / CARBON DIOXIDE / CHLORIDE / CHOLESTEROL / CREATINE PHOSPHOKINASE / CREATININE / GLUCOSE / LACTATE DEHYDROGENASE / LIPASE / PHOSPHORUS / POTASSIUM / SODIUM / TOTAL BILIRUBIN / TOTAL PROTEIN / URIC ACID: tissue Plasma
[1] = 300 mg/kg, 120 h, dose level M2, time 5 day, vehicle 100 % SALINE
[2] = 420 mg/kg, 72 h, dose level High, time 3 day, vehicle 100 % WATER
[3] = 420 mg/kg, 120 h, dose level High, time 5 day, vehicle 100 % WATER
[4] = […], 72 h, dose 2.5 mg/Kg, dose level Low, time 3 day, vehicle 100 % WATER
[5] = […], 120 h, dose 2.5 mg/Kg, dose level Low, time 5 day, vehicle 100 % WATER

CCCc1nn(C)c2c(=O)[nH]c(-c3cc(S(=O)(=O)N4CCN(C)CC4)ccc3OCC)nc12
BASOPHIL [1]: 0%
EOSINOPHIL [1]: 0%
ERYTHROCYTE COUNT [1]: 5.43 x10E6/uL
HEMATOCRIT [1]: 35.43%
HEMOGLOBIN [1]: 14 G/DL
LEUKOCYTE COUNT [1]: 11.23 x10E3/uL
LYMPHOCYTE [1]: 91%
MEAN CORPUSCULAR HEMOGLOBIN [1]: 25.83 pg
MEAN CORPUSCULAR HEMOGLOBIN CONCENTRATION [1]: 39.53 G/DL
MEAN CORPUSCULAR VOLUME [1]: 65.33 fL
MONOCYTE [1]: 0%
NEUTROPHIL [1]: 9%
NUCLEATED RED BLOOD CELLS [1]: 0.67 /100WBC
PLATELET COUNT [1]: 1112.67 x10E3/uL
ALANINE AMINOTRANSFERASE [1]: 45 u/L
ALBUMIN [1]: 4.03 G/DL
ALKALINE PHOSPHATASE [1]: 344 u/L
ASPARTATE AMINOTRANSFERASE [1]: 70.33 u/L
BLOOD UREA NITROGEN [1]: 14.67 mg/dL
CARBON DIOXIDE [1]: 33 mmol/L
CHLORIDE [1]: 100.33 MEQ/L
CHOLESTEROL [1]: 70 mg/dL
CREATINE PHOSPHOKINASE [1]: 212 u/L
CREATININE [1]: 0.31 mg/dL
GLUCOSE [1]: 137.33 mg/dL
LACTATE DEHYDROGENASE [1]: 106 u/L
LIPASE [1]: 11.33 u/L
PHOSPHORUS [1]: 10.77 mg/dL
POTASSIUM [1]: 6.45 MEQ/L
SODIUM [1]: 146.53 MEQ/L
TOTAL BILIRUBIN [1]: 0.2 mg/dL
TOTAL PROTEIN [1]: 5.43 G/DL
URIC ACID [1]: 0.73 mg/dL
ABSOLUTE BASOPHIL [2]: 0 CELLS/uL
ABSOLUTE EOSINOPHIL [2]: 0 CELLS/uL
ABSOLUTE LYMPHOCYTE [2]: 12448.33 CELLS/uL
ABSOLUTE MONOCYTE [2]: 74 CELLS/uL
ABSOLUTE SEGMENTED NEUTROPHIL [2]: 877.67 CELLS/uL
BASOPHIL [2]: 0%
EOSINOPHIL [2]: 0%
ERYTHROCYTE COUNT [2]: 5.64 x10E6/uL
HEMATOCRIT [2]: 35.27%
HEMOGLOBIN [2]: 13.43 G/DL
LEUKOCYTE COUNT [2]: 13.4 x10E3/uL
LYMPHOCYTE [2]: 92.33%
MEAN CORPUSCULAR HEMOGLOBIN [2]: 23.8 pg
MEAN CORPUSCULAR HEMOGLOBIN CONCENTRATION [2]: 38.1 G/DL
MEAN CORPUSCULAR VOLUME [2]: 62.57 fL
MONOCYTE [2]: 0.67%
NEUTROPHIL [2]: 7%
NUCLEATED RED BLOOD CELLS [2]: 0 /100WBC
PLATELET COUNT [2]: 944.33 x10E3/uL
ALANINE AMINOTRANSFERASE [2]: 41.67 u/L
ALBUMIN [2]: 3.77 G/DL
ALKALINE PHOSPHATASE [2]: 304 u/L
ASPARTATE AMINOTRANSFERASE [2]: 72.67 u/L
BLOOD UREA NITROGEN [2]: 16.33 mg/dL
CARBON DIOXIDE [2]: 30.33 mmol/L
CHLORIDE [2]: 102.33 MEQ/L
CHOLESTEROL [2]: 79.67 mg/dL
CREATINE PHOSPHOKINASE [2]: 170 u/L
CREATININE [2]: 0.14 mg/dL
GLUCOSE [2]: 148 mg/dL
LACTATE DEHYDROGENASE [2]: 130.33 u/L
LIPASE [2]: 9.67 u/L
PHOSPHORUS [2]: 8.4 mg/dL
POTASSIUM [2]: 5.71 MEQ/L
SODIUM [2]: 146.4 MEQ/L
TOTAL BILIRUBIN [2]: 0.23 mg/dL
TOTAL PROTEIN [2]: 5.6 G/DL
URIC ACID [2]: 0.5 mg/dL
ABSOLUTE BASOPHIL [3]: 0 CELLS/uL
ABSOLUTE EOSINOPHIL [3]: 0 CELLS/uL
ABSOLUTE LYMPHOCYTE [3]: 8874.67 CELLS/uL
ABSOLUTE MONOCYTE [3]: 36 CELLS/uL
ABSOLUTE SEGMENTED NEUTROPHIL [3]: 756 CELLS/uL
BASOPHIL [3]: 0%
EOSINOPHIL [3]: 0%
ERYTHROCYTE COUNT [3]: 5.05 x10E6/uL
HEMATOCRIT [3]: 32.73%
HEMOGLOBIN [3]: 12.9 G/DL
LEUKOCYTE COUNT [3]: 9.67 x10E3/uL
LYMPHOCYTE [3]: 91.67%
MEAN CORPUSCULAR HEMOGLOBIN [3]: 25.53 pg
MEAN CORPUSCULAR HEMOGLOBIN CONCENTRATION [3]: 39.4 G/DL
MEAN CORPUSCULAR VOLUME [3]: 64.8 fL
MONOCYTE [3]: 0.33%
NEUTROPHIL [3]: 8%
NUCLEATED RED BLOOD CELLS [3]: 0 /100WBC
PLATELET COUNT [3]: 1090.67 x10E3/uL
ALANINE AMINOTRANSFERASE [3]: 33.67 u/L
ALBUMIN [3]: 3.67 G/DL
ALKALINE PHOSPHATASE [3]: 232 u/L
ASPARTATE AMINOTRANSFERASE [3]: 57 u/L
BLOOD UREA NITROGEN [3]: 15.67 mg/dL
CARBON DIOXIDE [3]: 33.67 mmol/L
CHLORIDE [3]: 99 MEQ/L
CHOLESTEROL [3]: 77.67 mg/dL
CREATINE PHOSPHOKINASE [3]: 155 u/L
CREATININE [3]: 0.11 mg/dL
GLUCOSE [3]: 144.67 mg/dL
LACTATE DEHYDROGENASE [3]: 100 u/L
LIPASE [3]: 10 u/L
PHOSPHORUS [3]: 10.2 mg/dL
POTASSIUM [3]: 5.99 MEQ/L
SODIUM [3]: 146.03 MEQ/L
TOTAL BILIRUBIN [3]: 0.17 mg/dL
TOTAL PROTEIN [3]: 5.83 G/DL
URIC ACID [3]: 0.63 mg/dL
ABSOLUTE BASOPHIL [4]: 0 CELLS/uL
ABSOLUTE EOSINOPHIL [4]: 0 CELLS/uL
ABSOLUTE LYMPHOCYTE [4]: 7128 CELLS/uL
ABSOLUTE MONOCYTE [4]: 81 CELLS/uL
ABSOLUTE SEGMENTED NEUTROPHIL [4]: 891 CELLS/uL
BASOPHIL [4]: 0%
EOSINOPHIL [4]: 0%
ERYTHROCYTE COUNT [4]: 5.44 x10E6/uL
HEMATOCRIT [4]: 34.27%
HEMOGLOBIN [4]: 13.2 G/DL
LEUKOCYTE COUNT [4]: 8.1 x10E3/uL
LYMPHOCYTE [4]: 88%
MEAN CORPUSCULAR HEMOGLOBIN [4]: 24.4 pg
MEAN CORPUSCULAR HEMOGLOBIN CONCENTRATION [4]: 38.53 G/DL
MEAN CORPUSCULAR VOLUME [4]: 63.23 fL
MONOCYTE [4]: 1%
NEUTROPHIL [4]: 11%
NUCLEATED RED BLOOD CELLS [4]: 0.33 /100WBC
PLATELET COUNT [4]: 1027 x10E3/uL
ALANINE AMINOTRANSFERASE [4]: 61 u/L
ALBUMIN [4]: 4.03 G/DL
ALKALINE PHOSPHATASE [4]: 377.33 u/L
ASPARTATE AMINOTRANSFERASE [4]: 87.33 u/L
BLOOD UREA NITROGEN [4]: 16 mg/dL
CARBON DIOXIDE [4]: 29.33 mmol/L
CHLORIDE [4]: 101.67 MEQ/L
CHOLESTEROL [4]: 61 mg/dL
CREATINE PHOSPHOKINASE [4]: 188.67 u/L
CREATININE [4]: 0.1 mg/dL
GLUCOSE [4]: 163 mg/dL
LACTATE DEHYDROGENASE [4]: 107.67 u/L
LIPASE [4]: 8.33 u/L
PHOSPHORUS [4]: 9.57 mg/dL
POTASSIUM [4]: 5.88 MEQ/L
SODIUM [4]: 147.5 MEQ/L
TOTAL BILIRUBIN [4]: 0.17 mg/dL
TOTAL PROTEIN [4]: 5.97 G/DL
URIC ACID [4]: 0.63 mg/dL
ABSOLUTE BASOPHIL [5]: 0 CELLS/uL
ABSOLUTE EOSINOPHIL [5]: 0 CELLS/uL
ABSOLUTE LYMPHOCYTE [5]: 7975.33 CELLS/uL
ABSOLUTE MONOCYTE [5]: 0 CELLS/uL
ABSOLUTE SEGMENTED NEUTROPHIL [5]: 658 CELLS/uL
BASOPHIL [5]: 0%
EOSINOPHIL [5]: 0%
ERYTHROCYTE COUNT [5]: 5.39 x10E6/uL
HEMATOCRIT [5]: 34.73%
HEMOGLOBIN [5]: 14 G/DL
LEUKOCYTE COUNT [5]: 8.63 x10E3/uL
LYMPHOCYTE [5]: 92%
MEAN CORPUSCULAR HEMOGLOBIN [5]: 26 pg
MEAN CORPUSCULAR HEMOGLOBIN CONCENTRATION [5]: 40.3 G/DL
MEAN CORPUSCULAR VOLUME [5]: 64.5 fL
MONOCYTE [5]: 0%
NEUTROPHIL [5]: 8%
NUCLEATED RED BLOOD CELLS [5]: 0.33 /100WBC
PLATELET COUNT [5]: 629.67 x10E3/uL
ALANINE AMINOTRANSFERASE [5]: 49.67 u/L
ALBUMIN [5]: 4.27 G/DL
ALKALINE PHOSPHATASE [5]: 363.67 u/L
ASPARTATE AMINOTRANSFERASE [5]: 76 u/L
BLOOD UREA NITROGEN [5]: 14.33 mg/dL
CARBON DIOXIDE [5]: 32 mmol/L
CHLORIDE [5]: 98.67 MEQ/L
CHOLESTEROL [5]: 77 mg/dL
CREATINE PHOSPHOKINASE [5]: 203.33 u/L
CREATININE [5]: 0.13 mg/dL
GLUCOSE [5]: 145.33 mg/dL
LACTATE DEHYDROGENASE [5]: 120 u/L
LIPASE [5]: 9.33 u/L
PHOSPHORUS [5]: 11.67 mg/dL
POTASSIUM [5]: 6.39 MEQ/L
SODIUM [5]: 144.5 MEQ/L
TOTAL BILIRUBIN [5]: 0.2 mg/dL
TOTAL PROTEIN [5]: 6.3 G/DL
URIC ACID [5]: 0.87 mg/dL
